From patent US20230406865A1, “CRYSTAL FORM OF FREE BASE OF INHIBITOR CONTAINING BICYCLIC RING DERIVATIVE AND PREPARATION METHOD AND APPLICATION OF CRYSTAL FORM” (SHANGHAI HANSOH BIOMEDICAL CO., LTD., priority 2020, published 2023)

Experiments:
RET kinase = molecular target: T1, RET kinase (Homo sapiens, UniProt P07949); experiment: HTRF kinase activity inhibition, RET wild-type; type: biochemical; conditions: ATP at Km
T1 construct: purchased Carna 08-159
Text: 2.2 Experimental Reagents: • RET enzyme was purchased from Carna Company, and the article number was 08-159; • RET M918T enzyme was purchased from Carna Company, and the article number was 08-508; • KIF5B-RET was purchased from SignalChem Company, the article number was R02-19FG-05; • CCDC6-RET was purchased from SignalChem Company, the article number was R02-19BG-05; • RET V804M enzyme was purchased from Thermofisher Company, and the article number was PV6223; • RET V804L enzyme was purchased from Thermofisher Company, and the article number was PV4397; • HTRF KinEASE-TK kit was purchased from Cisbio Company, and the article number was 62TK0PEC; • ATP was purchased from Thermofisher Company, and the article number was PV3227; • 384-well plate was purchased from PerkinElmer Company, and the article number was 6007290.
In this experiment, a homogeneous time-resolved fluorescence (HTRF) method was used for the detection of compounds on RET kinase activity.

KDR kinase = molecular target: T2, KDR kinase (Homo sapiens, UniProt P35968); experiment: HTRF kinase activity inhibition, KDR; type: biochemical; conditions: for IC50: HTRF, ATP at Km; for Ratio (KDR/RET): KDR IC50 / RET IC50
T2 construct: purchased Carna 08-191
T2 sequence (P35968 20-1356): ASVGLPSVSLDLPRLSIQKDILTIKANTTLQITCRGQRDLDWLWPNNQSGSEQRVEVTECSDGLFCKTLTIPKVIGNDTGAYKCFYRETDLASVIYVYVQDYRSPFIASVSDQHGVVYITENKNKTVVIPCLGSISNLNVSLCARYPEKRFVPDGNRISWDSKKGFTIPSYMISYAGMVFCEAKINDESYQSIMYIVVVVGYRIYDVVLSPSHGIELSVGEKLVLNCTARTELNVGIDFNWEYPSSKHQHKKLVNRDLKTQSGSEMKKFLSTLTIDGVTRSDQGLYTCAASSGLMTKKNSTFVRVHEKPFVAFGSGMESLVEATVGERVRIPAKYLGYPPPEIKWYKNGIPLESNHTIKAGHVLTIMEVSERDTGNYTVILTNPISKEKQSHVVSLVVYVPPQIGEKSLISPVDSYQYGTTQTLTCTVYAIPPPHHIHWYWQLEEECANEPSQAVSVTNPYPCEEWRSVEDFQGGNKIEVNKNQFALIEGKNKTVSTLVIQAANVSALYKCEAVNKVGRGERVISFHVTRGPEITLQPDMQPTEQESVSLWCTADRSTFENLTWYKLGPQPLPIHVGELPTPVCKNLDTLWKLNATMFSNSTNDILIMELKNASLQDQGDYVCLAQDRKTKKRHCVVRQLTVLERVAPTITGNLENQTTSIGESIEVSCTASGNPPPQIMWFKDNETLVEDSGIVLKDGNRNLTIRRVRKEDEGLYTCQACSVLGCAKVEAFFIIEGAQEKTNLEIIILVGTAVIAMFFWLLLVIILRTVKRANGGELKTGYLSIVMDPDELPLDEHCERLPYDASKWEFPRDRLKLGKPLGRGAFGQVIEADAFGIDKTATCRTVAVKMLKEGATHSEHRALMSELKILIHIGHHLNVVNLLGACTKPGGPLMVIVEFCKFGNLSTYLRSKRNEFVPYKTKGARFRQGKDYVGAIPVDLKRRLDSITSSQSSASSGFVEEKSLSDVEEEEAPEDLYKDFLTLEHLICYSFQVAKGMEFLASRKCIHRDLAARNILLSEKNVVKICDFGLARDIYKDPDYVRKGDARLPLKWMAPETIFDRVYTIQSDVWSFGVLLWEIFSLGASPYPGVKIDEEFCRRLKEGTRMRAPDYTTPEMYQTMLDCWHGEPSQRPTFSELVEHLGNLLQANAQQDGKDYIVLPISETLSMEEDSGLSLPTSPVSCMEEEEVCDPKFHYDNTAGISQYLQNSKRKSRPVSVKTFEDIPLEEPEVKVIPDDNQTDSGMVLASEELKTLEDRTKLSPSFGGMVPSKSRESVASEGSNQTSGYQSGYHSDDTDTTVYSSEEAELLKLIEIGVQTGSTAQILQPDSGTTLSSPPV
Text: 2.2 Experimental Reagents: • KDR kinase was purchased from Carna Company, and the article number was 08-191; • HTRF KinEASE-TK kit was purchased from Cisbio Company, and the article number was 62TK0PEC; • ATP was purchased from Thermofisher Company, and the article number was PV3227; • 384-well plate was purchased from PerkinElmer Company, and the article number was 6007290.
In this experiment, the homogeneous time-resolved fluorescence (HTRF) method was used for the detection of compounds on KDR kinase activity.

T1 sequence (P07949 29-1114): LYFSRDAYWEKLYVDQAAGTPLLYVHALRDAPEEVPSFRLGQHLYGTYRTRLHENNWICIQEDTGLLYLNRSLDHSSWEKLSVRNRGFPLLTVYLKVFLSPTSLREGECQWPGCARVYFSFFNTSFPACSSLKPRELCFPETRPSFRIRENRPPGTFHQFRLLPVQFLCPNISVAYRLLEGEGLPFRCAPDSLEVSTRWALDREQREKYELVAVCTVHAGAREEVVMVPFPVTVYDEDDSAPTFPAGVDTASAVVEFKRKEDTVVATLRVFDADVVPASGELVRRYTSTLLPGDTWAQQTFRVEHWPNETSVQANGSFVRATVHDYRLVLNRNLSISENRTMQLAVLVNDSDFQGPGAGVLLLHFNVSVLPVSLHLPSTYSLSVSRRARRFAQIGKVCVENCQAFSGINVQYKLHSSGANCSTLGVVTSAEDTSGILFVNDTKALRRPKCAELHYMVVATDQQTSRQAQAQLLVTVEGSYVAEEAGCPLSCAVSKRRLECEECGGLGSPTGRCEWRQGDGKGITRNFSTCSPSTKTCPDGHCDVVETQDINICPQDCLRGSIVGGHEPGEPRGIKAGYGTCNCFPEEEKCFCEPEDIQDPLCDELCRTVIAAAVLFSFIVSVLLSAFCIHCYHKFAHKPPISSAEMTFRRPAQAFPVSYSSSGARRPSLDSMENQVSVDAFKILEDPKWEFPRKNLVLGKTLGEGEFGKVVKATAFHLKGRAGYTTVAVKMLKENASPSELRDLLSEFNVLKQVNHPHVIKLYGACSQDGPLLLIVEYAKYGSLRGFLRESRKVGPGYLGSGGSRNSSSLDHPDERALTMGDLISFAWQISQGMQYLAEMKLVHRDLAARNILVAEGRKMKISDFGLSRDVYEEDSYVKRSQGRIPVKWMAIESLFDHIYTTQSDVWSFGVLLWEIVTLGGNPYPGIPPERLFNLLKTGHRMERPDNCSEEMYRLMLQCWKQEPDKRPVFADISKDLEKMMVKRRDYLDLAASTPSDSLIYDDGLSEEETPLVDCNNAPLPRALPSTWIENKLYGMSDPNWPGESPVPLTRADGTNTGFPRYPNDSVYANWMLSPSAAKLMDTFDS

Row | SMILES | IC50 (RET kinase) | IC50 (KDR kinase) | Ratio (KDR/RET) (KDR kinase)
1 | COc1ccc(CN2C3CC2CN(c2ccc(-c4cc(NC(=O)C(C)(C)O)cn5ncc(C#N)c45)cn2)C3)cn1 [Embodiment 42, N-(3-Cyano-4-(6-(6-((6-methoxypyridin-3-yl)methyl)-3,6-diazabicyclo[3.1.1]heptan-3-yl)pyridin-3-yl)pyrazolo[1,5-a]pyridin-6-yl)-2-hydroxy-2-methylpropanamide] | 1.56 nM | 105 nM | 67
2 | COc1ccc(CN2C3CC2CN(c2ccc(-c4cc(OCC5(C#N)COC5)cn5ncc(C#N)c45)cn2)C3)cn1 [Embodiment 37, 6-((3-Cyanooxetan-3-yl)methoxy)-4-(6-(6-((6-methoxypyridin-3-yl)methyl)-3,6-diazabicyclo[3.1.1]heptan-3-yl)pyridin-3-yl)pyrazolo[1,5-a]pyridine-3-carbonitrile] | 0.71 nM | 60.4 nM | 85
3 | COc1ccc(CN2C3CC2CN(c2ccc(-c4cc(OCC5CS(=N)(=O)C5)cn5ncc(C#N)c45)cn2)C3)cn1 (stereo not drawn) [Embodiment 12, 6-((1-Imino-1-hydroxy-1l6-thietan-3-yl)methoxy)-4-(6-(6-((6-methoxypyridin-3-yl)methyl)-3,6-diazabicyclo[3.1.1]heptan-3-yl)pyridin-3-yl)pyrazolo[1,5-a]pyridine-3-carbonitrile] | 1.3 nM | 69 nM | 55
4 | COc1ccc(CN2C3CC2CN(c2ccc(-c4cc(N5CC(C)(O)C5)cn5ncc(C#N)c45)cn2)C3)cn1 [Embodiment 33, 6-(3-Hydroxy-3-methylazetidin-1-yl)-4-(6-(6-((6-methoxypyridin-3-yl)methyl)-3,6-diazabicyclo[3.1.1]heptan-3-yl)pyridin-3-yl)pyrazolo[1,5-a]pyridine-3-carbonitrile] | 0.4 nM | 5.6 nM | 14
5 | COc1ccc(CN2C3CC2CN(c2ccc(-c4cc(N5CCC(C)(O)C5)cn5ncc(C#N)c45)cn2)C3)cn1 (stereo not drawn) [Embodiment 34, 6-(3-Hydroxy-3-methylpyrrolidin-1-yl)-4-(6-(6-((6-methoxypyridin-3-yl)methyl)-3,6-diazabicyclo[3.1.1]heptan-3-yl)pyridin-3-yl)pyrazolo[1,5-a]pyridine-3-carbonitrile] | 0.7 nM | 4.7 nM | 7
6 | CC1(NC(=O)c2ncccc2F)CCN(c2ccc(-c3cc(OCC4(C#N)CC4)cn4ncc(C#N)c34)cn2)CC1 [Embodiment 93, N-(1-(5-(3-Cyano-6-((1-cyanocyclopropyl)methoxy)pyrazolo[1,5-a]pyridin-4-yl)pyridin-2-yl)-4-methylpiperidin-4-yl)-3-fluoropicolinamide] | 1.1 nM | 150 nM | 136
7 | COc1ccc(CN2C3CC2CN(c2ccc(-c4cc(OCC5(C#N)CC(F)(F)C5)cn5ncc(C#N)c45)cn2)C3)cn1 [Embodiment 57, 6-((1-Cyano-3,3-difluorocyclobutyl)methoxy)-4-(6-(6-((6-methoxypyridin-3-yl)methyl)-3,6-diazabicyclo[3.1.1]heptan-3-yl)pyridin-3-yl)pyrazolo[1,5-a]pyridine-3-carbonitrile] | 1.1 nM | 209 nM | 187
8 | CC1(NC(=O)c2ncccc2Cl)CCN(c2ccc(-c3cc(N4CC(C(C)(C)O)C4)cn4ncc(C#N)c34)cn2)CC1 [Embodiment 88, 3-Chloro-N-(1-(5-(3-cyano-6-(3-(2-hydroxypropan-2-yl)azetidin-1-yl)pyrazolo[1,5-a]pyridin-4-yl)pyridin-2-yl)-4-methylpiperidin-4-yl)picolinamide] | 1.2 nM | 61 nM | 49
9 | CC1(O)CC2(CN(c3cc(-c4ccc(N5CCC(C)(NC(=O)c6ncccc6Cl)CC5)nc4)c4c(C#N)cnn4c3)C2)C1 [Embodiment 89, 3-Chloro-N-(1-(5-(3-cyano-6-(6-hydroxy-6-methyl-2-azaspiro[3.3]heptan-2-yl)pyrazolo[1,5-a]pyridin-4-yl)pyridin-2-yl)-4-methylpiperidin-4-yl)picolinamide] | 1.1 nM | 8.9 nM | 8
10 | COc1ccc(CN2C3CC2CN(c2ccc(-c4cc(N5CCC(C)(O)CC5)cn5ncc(C#N)c45)cn2)C3)cn1 [Embodiment 35, 6-(4-Hydroxy-4-methylpiperidin-1-yl)-4-(6-(6-((6-methoxypyridin-3-yl)methyl)-3,6-diazabicyclo[3.1.1]heptan-3-yl)pyridin-3-yl)pyrazolo[1,5-a]pyridine-3-carbonitrile] | 0.49 nM | 6.2 nM | 13
11 | COc1ccc(CN2C3CC2CN(c2ccc(-c4cc(NC(=O)C5(C#N)CC5)cn5ncc(C#N)c45)cn2)C3)cn1 [Embodiment 74, 1-Cyano-N-(3-cyano-4-(6-(6-((6-methoxypyridin-3-yl)methyl)-3,6-diazabicyclo[3.1.1]heptan-3-yl)pyridin-3-yl)pyrazolo[1,5-a]pyridin-6-yl)cyclopropane-1-carboxamide] | 1.8 nM | 247 nM | 137
12 | CC1(C#N)CN(c2cc(-c3ccc(N4CCC(C)(NC(=O)c5ncccc5Cl)CC4)nc3)c3c(C#N)cnn3c2)C1 [Embodiment 96, 3-Chloro-N-(1-(5-(3-cyano-6-(3-cyano-3-methylazetidin-1-yl)pyrazolo[1,5-a]pyridin-4-yl)pyridin-2-yl)-4-methylpiperidin-4-yl)picolinamide] | 0.72 nM | 15.8 nM | 22
13 | COc1ccc(CN2C3CC2CN(c2ccc(-c4cc(OCCCS(C)(=N)=O)cn5ncc(C#N)c45)cn2)C3)cn1 (stereo not drawn) [Embodiment 6, 4-(6-(6-((6-Methoxypyridin-3-yl)methyl)-3,6-diazabicyclo[3.1.1]heptan-3-yl)pyridin-3-yl)-6-(3-(S-methylsulfonimidoyl)propoxy)pyrazolo[1,5-a]pyridine-3-carbonitrile] | 0.79 nM | 27.7 nM | 35
